IC50 data for 68 molecules are collected here from patent US20240254089A1, “MODULATORS OF MAS-RELATED G-PROTEIN RECEPTOR X4 AND RELATED PRODUCTS AND METHODS” (ESCIENT PHARMACEUTICALS, INC., priority 2020, published 2024).

The assay deals with T1, human MRGPR X4 (Homo sapiens, UniProt Q96LA9).
T1 construct: expressed in transfected cells
Briefly: MRGPR X4 antagonist activity, IP-One Gq HTRF assay in stably transfected HEK cells. In kind it is cell-based. A digest of the protocol: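 Human MRGPR X4-expressing HEK cells, 20,000/well, were incubated with compound (10-point curve, 10 uM top, 1:3 dilutions) plus agonist (10 μM bilirubin, 20 μM deoxycholic acid or 100 μM conjugated bilirubin) in Tris/NaCl/LiCl buffer, pH 8, for 1 h at 37 °C, then 30 min at room temperature. IP-1 was read by HTRF, and IC50 was taken from the HTRF ratio.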
On the technique in general: Time-resolved FRET reads energy transfer from a long-lived donor to a nearby acceptor.

[1] abbreviates: versus 20 μM deoxycholic acid agonist, HEK cells expressing human MRGPR X4, read-out: MRGPRX4 Antagonist Activity.

Like-named read-outs stand apart in the source and are kept apart here.

T1 sequence (Q96LA9 whole entry): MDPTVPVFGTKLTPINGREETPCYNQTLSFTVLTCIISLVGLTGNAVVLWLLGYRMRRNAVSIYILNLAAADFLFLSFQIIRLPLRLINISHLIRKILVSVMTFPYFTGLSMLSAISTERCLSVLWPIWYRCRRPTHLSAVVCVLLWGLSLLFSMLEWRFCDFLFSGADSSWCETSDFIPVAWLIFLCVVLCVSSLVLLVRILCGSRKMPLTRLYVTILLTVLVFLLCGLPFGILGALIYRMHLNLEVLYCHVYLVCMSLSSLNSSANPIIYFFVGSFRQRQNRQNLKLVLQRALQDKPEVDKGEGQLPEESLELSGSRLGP

`O=C(NCCc1nnc2ccccn12)c1nn(Cc2ccc(-c3cnco3)cc2)c2ccccc12` [Compound 478] returned an IC50 of 501 to 1000 nM. As for `O=C(NS(=O)(=O)c1ccc(Cl)cc1Cl)c1nn(Cc2ccc(OC(F)F)cc2)c2ccccc12` [Compound 294], under setting [1], the IC50 lay in the range of 1000 to 2500 nM.

Take `CC(c1ccc(Cl)cc1)n1nc(C(=O)NCCc2nc3c(s2)CCCC3)c2ccccc21` (centres unmarked) [Compound 118]: the IC50 lay in the range of 1000 to 2500 nM. Regarding `O=C(NS(=O)(=O)c1cccc(C(F)(F)F)c1)c1nn(Cc2ccc(OC(F)F)cc2)c2ccccc12` [Compound 265], the IC50 under setting [1] is 501 to 1000 nM. In turn, `O=C(NCCc1nnc2ccccn12)c1nn(Cc2ncc3cc(Cl)ccc3n2)c2ccccc12` [Compound 436] returned an IC50 of 100 to 500 nM. Same read-out and setting: under `Cc1ccc(Cn2nc(C(=O)NCCc3nnc4n3CCCCC4)c3ccccc32)cc1` [Compound 13] stands below 100 nM. Consider `O=C(NS(=O)(=O)c1ccc(OC(F)(F)F)cc1)c1nn(Cc2ccc(OC(F)F)cc2)c2ccccc12` [Compound 296], for which, under setting [1], the IC50 was above 2500 nM. In the case of `O=C(NCCc1ccc(F)cc1)c1cn(Cc2ccc(Cl)cc2)c2ccccc12` [Compound 179], the IC50 was 100 to 500 nM.

Take `Cc1cc(Cl)ccc1Cn1nc(C(=O)NCCc2nc3c(s2)CCCC3)c2ccccc21` [Compound 98]: the IC50 lay in the range of 1000 to 2500 nM. Regarding `O=C(NCCC(=O)N1CCOCC1)c1nn(Cc2ccc(Cl)cc2)c2ccccc12` [Compound 401], the IC50 under setting [1] was 501 to 1000 nM. Consider `O=C(NS(=O)(=O)c1cccc(F)c1)c1nn(Cc2ccc(OC(F)F)cc2)c2ccccc12` [Compound 267], for which the IC50 under setting [1] was in the range of 501 to 1000 nM.

On to `Cc1ccc(S(=O)(=O)NC(=O)c2nn(Cc3ccc(OC(F)F)cc3)c3ccccc23)cc1` [Compound 309, 1-(4-(difluoromethoxy)benzyl)-N-tosyl-1H-indazole-3-carboxamide], for which, under setting [1], the IC50 lay within 1000 to 2500 nM. Take `Cc1ccccc1S(=O)(=O)NC(=O)c1nn(Cc2ccc(OC(F)F)cc2)c2ccccc12` [Compound 258]: the IC50 is 100 to 500 nM. The same measure, in the same setting: under `Cc1ccc(Cn2nc(C(=O)NCCc3nnc4ccccn34)c3ccccc32)cc1` [Compound 528] stands below 100 nM. In the case of `O=C(Cn1nc(C(=O)NCCc2nnc3ccccn23)c2ccccc21)c1ccc(Cl)c(Cl)c1` [Compound 482], the IC50 under setting [1] is below 100 nM. In turn, `O=C(NCCc1nnc2ccccn12)c1nn(Cc2nnc(-c3ccccc3)o2)c2ccccc12` [Compound 414] had an IC50 of 100 to 500 nM. The same measure, in the same setting: under `Cc1ccc(Cn2nc(C(=O)NCCc3ccn(C)n3)c3ccccc32)cc1` [Compound 76] stands 501 to 1000 nM. As to `O=C(CS(=O)(=O)c1cn(Cc2ccc(Cl)cc2)c2ccccc12)Nc1ccccn1` [Compound 241], the IC50 under setting [1] was 100 to 500 nM. `O=C(NCCc1cnccn1)c1nn(Cc2ccc(Cl)cc2)c2ccccc12` [Compound 348] displayed an IC50 of 1000 to 2500 nM. In turn, `Cc1ccc(CCNC(=O)c2nn(Cc3ccc(Cl)cc3)c3ccccc23)cn1` [Compound 21] yielded an IC50 below 100 nM. Still for that read-out and setting: under `O=C(NCCc1ccc(C(F)(F)F)nc1)c1nn(Cc2ccc(Cl)cc2)c2ccccc12` [Compound 86] stands 501 to 1000 nM. For the molecule `O=C(NS(=O)(=O)Cc1ccccn1)c1nn(Cc2ccc(Cl)cc2)c2ccccc12` [Compound 299], under setting [1], the IC50 is above 2500 nM. For the molecule `COc1cc(Cn2nc(C(=O)NCCc3cccnc3)c3ccccc32)ccc1Cl` [Compound 43, 1-(4-chloro-3-methoxybenzyl)-N-(2-(pyridin-3-yl)ethyl)-1H-indazole-3-carboxamide], the IC50 lay in the range of 100 to 500 nM. On the same count and under the same terms, under `O=C(O)c1nn(Cc2ccc(OC(F)(F)F)cc2)c2ccccc12` [Compound 321] stands 1000 to 2500 nM. `O=C(NCCc1nnc(C2CCOCC2)[nH]1)c1nn(Cc2cccc(F)c2)c2ccccc12` [Compound 129]: under setting [1], the IC50 was above 2500 nM. On to `O=C(NCCN1CCCc2ccccc21)c1nn(Cc2ccc(Cl)cc2)c2ccccc12` [Compound 373], for which the IC50 fell in the range of 501 to 1000 nM.

Turning to `O=C(NCc1ccc(-n2cccn2)nc1)c1nn(Cc2ccc(Cl)cc2)c2ccccc12` [Compound 369], the IC50 is above 2500 nM. The molecule `CCn1c(Cn2nc(C(=O)NCCc3nnc4ccccn34)c3ccccc32)nc2ccccc21` [Compound 480] showed an IC50 of 501 to 1000 nM. Same read-out and setting: under `Cc1c(Cn2nc(C(=O)NCCc3nnc4ccccn34)c3ccccc32)cccc1-c1ccccc1` [Compound 449] stands 100 to 500 nM; under `COc1ccc2nc(Cn3nc(C(=O)NCCc4nnc5ccccn45)c4ccccc43)[nH]c2c1` [Compound 519], 501 to 1000 nM.

In turn, `Cc1[nH]c2ccc(O)cc2c1CCNC(=O)c1nn(Cc2ccc(Cl)cc2)c2ccccc12` [Compound 416] gave an IC50 below 100 nM.

For the molecule `O=C(NCCc1nc2c(s1)CCCC2)c1nn(Cc2ccc(Cl)c(F)c2)c2ccccc12` [Compound 54], the IC50 is 100 to 500 nM. With `Cc1ccc(Cn2nc(C(=O)NCCc3nc4c(s3)CCCC4)c3c(F)cccc32)cc1` [Compound 69], the IC50 lay within 100 to 500 nM.

`Cc1noc(C)c1CCCNC(=O)c1nn(Cc2ccc(Cl)cc2)c2ccccc12` [Compound 383] had an IC50 of 1000 to 2500 nM. Molecule `O=C(O)c1nn(Cc2cccc(OC(F)(F)F)c2)c2ccccc12` [Compound 328] came in with an IC50 above 2500 nM.

Take `O=C(NCCc1nnc2ccccn12)c1nn(Cc2ccn3ccnc3c2)c2ccccc12` [Compound 476]: the IC50 was above 2500 nM. In the case of `O=C(NCCc1nnc2ccccn12)c1nn(Cc2cc3c(cc2Cl)OCO3)c2ccccc12` [Compound 411], the IC50 was below 100 nM. On the same count and under the same terms, under `Cc1ccc(Cn2cc(C(=O)NCCc3ccncc3)c3ccccc32)cc1` [Compound 172] stands 100 to 500 nM; under `O=C(NCCC1CCS(=O)(=O)CC1)c1nn(Cc2ccc(Cl)cc2)c2ccccc12` [Compound 385], above 2500 nM; under `Cc1ccc(Cn2cc(C(=O)NCCc3nc(C)cs3)c3ccccc32)cc1` [Compound 159], 100 to 500 nM.

Regarding `Cc1cccc(Cn2cc(C(=O)NCCc3cccnc3)c3ccccc32)c1` [Compound 201], the IC50 was in the range of 1000 to 2500 nM. The same measure, in the same setting: under `CC(C)c1noc(Cn2nc(C(=O)NCCc3nnc4ccccn34)c3ccccc32)n1` [Compound 437] stands 100 to 500 nM; under `O=C(NCCC(=O)N1CCCC1)c1nn(Cc2ccc(Cl)cc2)c2ccccc12` [Compound 403], 100 to 500 nM. As to `O=C(O)c1ccc(S(=O)(=O)NC(=O)c2nn(Cc3ccc(OC(F)F)cc3)c3ccccc23)cc1` [Compound 311, 4-(N-(1-(4-(difluoromethoxy)benzyl)-1H-indazole-3-carbonyl)sulfamoyl)benzoic acid], the IC50 under setting [1] lay within 1000 to 2500 nM. Still for that read-out and setting: under `O=C(NS(=O)(=O)c1ccc(Cl)cc1Cl)c1nn(Cc2ccc(Cl)cc2)c2ccccc12` [Compound 308] stands above 2500 nM. Take `CC(C)(C#N)c1ccc(Cn2nc(C(=O)NCCc3nnc4ccccn34)c3ccccc32)cc1` [Compound 462]: the IC50 lay in the range of 1000 to 2500 nM.

Consider `Cc1nc(Cn2nc(C(=O)NCCc3nnc4ccccn34)c3ccccc32)nc2ccccc12` [Compound 431], for which the IC50 lay in the range of 1000 to 2500 nM. In the case of `Cc1cc(Cn2nc(C(=O)NCCc3nc4c(s3)CCCC4)c3ccccc32)ccc1Cl` [Compound 68], the IC50 is 100 to 500 nM. Molecule `COc1ccc2ccccc2c1Cn1nc(C(=O)NCCc2nnc3ccccn23)c2ccccc21` [Compound 453] displayed an IC50 of 1000 to 2500 nM.

With `O=C(NCCc1cn2c(n1)SCC2)c1nn(Cc2ccc(Cl)cc2)c2ccccc12` [Compound 33], the IC50 fell in the range of 100 to 500 nM. On the same count and under the same terms, under `CC(Cc1ccccn1)NC(=O)c1nn(Cc2ccc(Cl)cc2)c2ccccc12` (centres unmarked) [Compound 127] stands above 2500 nM. Molecule `O=C(NCCc1nnc2ccccn12)c1nn(Cn2nnc3ccccc32)c2ccccc12` [Compound 465] registered an IC50 of 100 to 500 nM. On the same count and under the same terms, under `O=C(NCCc1ccon1)c1nn(Cc2ccc(Cl)cc2)c2ccccc12` [Compound 100] stands 1000 to 2500 nM; under `Cc1ccc(Cn2nc(C(=O)NCCc3noc(C(C)C)n3)c3ccccc32)cc1` [Compound 85], 501 to 1000 nM. The same measure, in the same setting: under `C#Cc1ccc(Cn2nc(C(=O)NCCc3nnc4ccccn34)c3ccccc32)cc1` [Compound 445, N-(2-([1,2,4]triazolo[4,3-a]pyridin-3-yl)ethyl)-1-(4-ethynylbenzyl)-1H-indazole-3-carboxamide] stands 100 to 500 nM.

Consider `Cc1ccc(C(=O)Cn2nc(C(=O)NCCc3nnc4ccccn34)c3ccccc32)cc1` [Compound 468], for which the IC50 under setting [1] was 1000 to 2500 nM.

For the molecule `Cc1cccc(Cn2cc(C(=O)NCCc3ccc(Cl)c(F)c3)c3ccccc32)c1` [Compound 222], the IC50 was 1000 to 2500 nM. On the same count and under the same terms, under `O=C(NCCc1nnc2ccccn12)c1nn(Cc2ccc(Cl)cc2)c2cc(Br)ccc12` [Compound 550] stands 100 to 500 nM; under `COc1ccc(Cn2cc(C(=O)NCCc3ccc(Cl)c(F)c3)c3ccccc32)cc1` [Compound 218], 1000 to 2500 nM.

With `Cc1ccc(CCNC(=O)c2cn(Cc3ccc(Cl)cc3)c3ccccc23)cc1` [Compound 175], the IC50 fell in the range of 100 to 500 nM. Same read-out and setting: under `O=C(NCCN1CCCCC1=O)c1nn(Cc2ccc(Cl)cc2)c2ccccc12` [Compound 419] stands 100 to 500 nM; under `CC(C)(C)c1ccc(Cn2nc(C(=O)NCCc3nnc4n3CCCCC4)c3ccccc32)cc1` [Compound 50], 100 to 500 nM; under `O=C(NCCc1cccnc1)c1nn(Cc2ccc(Cl)cc2)c2ccccc12` [Compound 19], below 100 nM.

Consider `Cc1ccc(CS(=O)(=O)NC(=O)c2nn(Cc3ccc(Cl)cc3)c3ccccc23)cc1` [Compound 264], for which the IC50 under setting [1] was in the range of 501 to 1000 nM.

`Cc1ccc(CCNC(=O)c2cn(Cc3cccc(F)c3)c3ccccc23)cn1` [Compound 202] registered an IC50 of 1000 to 2500 nM. For the molecule `O=C(NS(=O)(=O)c1cccc(OC(F)(F)F)c1)c1nn(Cc2ccc(OC(F)F)cc2)c2ccccc12` [Compound 281], the IC50 under setting [1] is 1000 to 2500 nM. Molecule `O=C(O)c1nn(Cc2ccc(F)cc2)c2ccccc12` [Compound 331] gave an IC50 above 2500 nM. Still for that read-out and setting: under `O=C(NCCc1nnc2ccccn12)c1nn(Cc2ccc3nsnc3c2)c2ccccc12` [Compound 477] stands below 100 nM.
